Reference: patent publication US10925280B2, “Solid agrochemical compositions” (UPL LIMITED, priority 2015, dated 2021)

Columns and labels:
[1] = Physical appearance in open containers at ambient conditions; type: physicochemical
Description: The appearances for the granular compositions prepared according to the present invention were investigated in open containers at ambient conditions.
(§1) It has been observed that the granular compositions according to the present inventions are dry solids as evidenced by the appearance. […] Further, the granules were appeared as dry solids after 6 months of storage. The inventors of the present invention confirmed the stability of the granules by investigating the weight gain of the compositions and by calculating the relative weight gain with respect to glufosinate salt. The weight gain of the granular compositions according to the present invention were investigated at 30° C. and 60% humidity as per ASTM (1996) method and the results are summarized in the below table (Table 3).

[2] = Weight gain (uptake of moisture) at 30° C. and 60% humidity as per ASTM (1996) method; type: physicochemical
Description: as §1
Relative % weight gain of the composition is calculated using the formula given below:
[formula] [formula] • wherein X is glufosinate ammonium technical

CP(=O)(O)CCC(N)C(=O)O (stereo not shown) [Glufosinate ammonium, 2-amino-4-[hydroxy(methyl)phosphinoyl]butyric acid]
Appearance at 0 hrs ([1]; 0 hrs): Dry solid | Appearance After 24 hrs ([1]; 24 hrs): Wet solid | Appearance After 72 hrs ([1]; 72 hrs): Liquid | % weight gain after 24 hrs ([2]; 24 hrs): 1.834% | Weight of sample after 24 hrs ([2]; 24 hrs): 1.0219 g | Relative % weight gain after 24 hrs ([2]; 24 hrs, relative to glufosinate ammonium technical): 100% | Weight of sample ([2]; start): 1.0035 g
